# Laboratory results from patent US5543415A, “Antidepressants” (Kyowa Hakko Kogyo Co., Ltd., priority 1992, dated 1996).
# Test system: ddY-strain male mice
# Test: Acute Toxicity Test (minimum lethal dose, oral)
# Assay type: in vivo
# Settings: seven days after administration
# Procedure: Test compounds were orally administered to groups of ddY-strain male mice weighing 20±1 g, each group consisting of three mice. Seven days after the administration, minimum lethal dose (MLD) of each compound was determined by observing the mortality.
row,SMILES,MLD (minimum lethal dose) [mg/kg]
1,"CCn1c(=O)c2c(nc(/C=C/c3ccc4c(c3)OCO4)n2C)n(CC)c1=O [Compound 88, (E)-1,3-Diethyl-7-methyl-8-(3,4-methylenedioxystyryl)xanthine]",> 300
2,"CCn1c(=O)c2[nH]c(/C=C/c3ccc(OC)c(OC)c3OC)nc2n(CC)c1=O [Compound 79, (E)-1,3-Diethyl-8-(2,3,4-trimethoxystyryl)xanthine]",> 300
3,"CCn1c(=O)c2[nH]c(/C=C/c3ccc(OC)c(Br)c3)nc2n(CC)c1=O [Compound 113, (E)-8-(3-Bromo-4-methoxystyryl)-1,3-diethylxanthine]",> 100
4,"CCCn1c(=O)c2[nH]c(/C=C/c3cc(C)c(OC)cc3C)nc2n(CCC)c1=O [Compound 45, (E)-8-(4-Methoxy-2,5-dimethylstyryl)-1,3-dipropylxanthine]",> 300
5,"COc1ccc(/C=C/c2nc3c(c(=O)n(C)c(=O)n3C)n2C)c(OC)c1OC [Compound 92, (E)-8-(2,3,4-Trimethoxystyryl)caffeine]",> 300
6,"CCn1c(=O)c2[nH]c(/C=C/c3ccc(C)cc3)nc2n(CC)c1=O [Compound 151, (E)-1,3-Diethyl-8-(4-methylstyryl)xanthine]",> 100
7,"CCn1c(=O)c2c(nc(/C=C/c3cc4c(cc3Br)OCO4)n2C)n(CC)c1=O [Compound 166, (E)-8-(2-Bromo-4,5-methylenedioxystyryl)-1,3-diethyl-7-methylxanthine]",> 100
8,"CCCn1c(=O)c2c(nc(/C=C/c3cccc(Cl)c3)n2C)n(CCC)c1=O [Compound 40, (E)-8-(3-Chlorostyryl)-7-methyl-1,3-dipropylxanthine]",> 300
9,"CCn1c(=O)c2c(nc(/C=C/c3cccc(Oc4ccccc4)c3)n2C)n(CC)c1=O [Compound 192, (E)-1,3-Diethyl-7-methyl-8-(3-phenoxystyryl)xanthine]",> 100
10,"CCn1c(=O)c2[nH]c(/C=C/c3ccc(Br)cc3)nc2n(CC)c1=O [Compound 141, (E)-8-(4-Bromostyryl)-1,3-diethylxanthine]",> 100
11,"CCn1c(=O)c2c(nc(/C=C/c3ccc(OCOC)cc3)n2C)n(CC)c1=O [Compound 146, (E)-1,3-Diethyl-8-(4-methoxymethoxystyryl)-7-methylxanthine]",> 100
12,"CCn1c(=O)c2[nH]c(/C=C/c3cccc(OC)c3)nc2n(CC)c1=O [Compound 139, (E)-1,3-Diethyl-8-(3-methoxystyryl)xanthine]",> 100
13,"CCn1c(=O)c2[nH]c(/C=C/c3cc(OC)c4c(c3)OCO4)nc2n(CC)c1=O [Compound 178, (E)-1,3-Diethyl-8-(3-methoxy-4,5-methylenedioxystyryl)xanthine]",> 100
14,"CCCn1c(=O)c2c(nc(/C=C/c3ccc(OC)c(O)c3)n2C)n(CCC)c1=O [Compound 64, (E)-8-(3-Hydroxy-4-methoxystyryl)-7-methyl-1,3-dipropylxanthine]",> 100
15,"CCn1c(=O)c2c(nc(C(F)=Cc3ccccc3)n2C)n(CC)c1=O (stereo in doubt) [Compound 138, (E)-1,3-Diethyl-8-(α-fluorostyryl)-7-methylxanthine]",> 100
16,"COc1ccc(/C=C/c2nc3c([nH]2)c(=O)n(C)c(=O)n3C)cc1Br [Compound 115, (E)-8-(3-Bromo-4-methoxystyryl)theophylline]",> 100
17,"CCn1c(=O)c2c(nc(/C=C/c3ccc(F)c(F)c3)n2C)n(CC)c1=O [Compound 112, (E)-8-(3,4-Difluorostyryl)-1,3-diethyl-7-methylxanthine]",> 300
18,"CCCn1c(=O)c2nc(/C=C/c3cc(OC)c(OC)cc3OC)[nH]c2n(CCC)c1=O [Compound 23, (E)-1,3-Dipropyl-8-(2,4,5-trimethoxystyryl)xanthine]",> 300
19,"CCn1c(=O)c2[nH]c(/C=C/c3cc(F)cc(F)c3)nc2n(CC)c1=O [Compound 155, (E)-8-(3,5-Difluorostyryl)-1,3-diethylxanthine]",> 100
20,"CCn1c(=O)c2c(nc(/C=C/c3cccc(OC)c3OC)n2C)n(CC)c1=O [Compound 76, (E)-8-(2,3-Dimethoxystyryl)-1,3-diethyl-7-methylxanthine]",> 300
21,"CCCn1c(=O)c2nc(/C=C/c3cc(OC)c(OC)c(OC)c3)[nH]c2n(CCC)c1=O [Compound 10, (E)-1,3-dipropyl-8-(3,4,5-trimethoxystyryl)xanthine]",> 300
22,"CCCn1c(=O)c2[nH]c(/C=C/c3cccc([N+](=O)[O-])c3)nc2n(CCC)c1=O [Compound 35, (E)-8-(3-Nitrostyryl)-1,3-dipropylxanthine]",> 100
23,"CCCCn1c(=O)c2c(nc(/C=C/c3cc(OC)c(OC)c(OC)c3)n2C)n(CCCC)c1=O [Compound 9, (E)-1,3-Dibutyl-7-methyl-8-(3,4,5-trimethoxystyryl)xanthine]",> 300

row,SMILES,MLD (minimum lethal dose) [mg/kg]
1,"CCn1c(=O)c2c(nc(/C=C/c3ccc(OCCCCBr)cc3)n2C)n(CC)c1=O [Compound 186, (E)-8-[4-(4-Bromobutoxy)styryl]-1,3-diethyl-7-methylxanthine]",> 100
2,"CCCn1c(=O)c2c(nc(/C=C/c3ccc(OCC)c(OCC)c3)n2C)n(CCC)c1=O [Compound 55, (E)-8-(3,4-Diethoxystyryl)-7-methyl-1,3-dipropylxanthine]",> 100
3,"CCn1c(=O)c2[nH]c(/C=C/c3cccc(F)c3C)nc2n(CC)c1=O [Compound 180, (E)-1,3-Diethyl-8-(3-fluoro-2-methylstyryl)xanthine]",> 100
4,"CCCn1c(=O)c2c(nc(/C=C/c3ccccc3Cl)n2C)n(CCC)c1=O [Compound 42, (E)-8-(2-Chlorostyryl)-7-methyl-1,3-dipropylxanthine]",> 100
5,"CCCn1c(=O)c2c(nc(/C=C/c3ccc(O)c(O)c3)n2C)n(CCC)c1=O [Compound 54, (E)-8-(3,4-Dihydroxystyryl)-7-methyl-1,3-dipropylxanthine]",> 100
6,"CCn1c(=O)c2[nH]c(/C=C/c3cccc(Oc4ccccc4)c3)nc2n(CC)c1=O [Compound 191, (E)-1,3-Diethyl-8-(3-phenoxystyryl)xanthine]",> 100
7,"CCn1c(=O)c2c(nc(/C=C/c3cccc(Cl)c3)n2C)n(CC)c1=O [Compound 132, (E)-8-(3-Chlorostyryl)-1,3-diethyl-7-methylxanthine]",> 300
8,"CCn1c(=O)c2c(nc(/C=C/c3ccc(OC)c(C)c3OC)n2C)n(CC)c1=O [Compound 86, (E)-8-(2,4-Dimethoxy-3-methylstyryl)-1,3-diethyl-7-methylxanthine]",> 300
9,"CCCn1c(=O)c2c(nc(/C=C/c3ccc(OC)c(OC)c3)n2CC)n(CCC)c1=O [Compound 66, (E)-8-(3,4-Dimethoxystyryl)-7-ethyl-1,3-dipropylxanthine]",> 300
10,"CCCn1c(=O)c2[nH]c(/C=C/c3ccc4c(c3)OCO4)nc2n(CCC)c1=O [Compound 19, (E)-8-(3,4-Methylenedioxystyryl)-1,3-dipropylxanthine]",> 300
11,"CCn1c(=O)c2[nH]c(/C=C/c3cccc(C(F)(F)F)c3)nc2n(CC)c1=O [Compound 163, (E)-1,3-Diethyl-8-(3-trifluoromethylstyryl)xanthine]",> 100
12,"CCCn1c(=O)c2c(nc(/C=C/c3ccc(OC)c(C)c3OC)n2C)n(CCC)c1=O [Compound 16, (E)-8-(2,4-Dimethoxy-3-methylstyryl)-7-methyl-1,3-dipropylxanthine]",> 300
13,"CCn1c(=O)c2[nH]c(/C=C/c3ccccc3OC)nc2n(CC)c1=O [Compound 157, (E)-1,3-Diethyl-8-(2-methoxystyryl)xanthine]",> 100
14,"CCCn1c(=O)c2nc(/C=C/c3cc(OC)cc(OC)c3)[nH]c2n(CCC)c1=O [Compound 33, (E)-8-(3,5-Dimethoxystyryl)-1,3-dipropylxanthine]",> 100
15,"CCn1c(=O)c2[nH]c(/C=C/c3cc(OC)c(OC)cc3[N+](=O)[O-])nc2n(CC)c1=O [Compound 119, (E)-8-(4,5-Dimethoxy-2-nitrostyryl)-1,3-diethylxanthine]",> 100
16,"CCOC(=O)COc1ccc(/C=C/c2nc3c(c(=O)n(CC)c(=O)n3CC)n2C)cc1 [Compound 189, (E)-8-(4-Ethoxycarbonylmethoxystyryl)-1,3-diethyl-7-methylxanthine]",> 100
17,"CCCOc1ccc(/C=C/c2nc3c(c(=O)n(CCC)c(=O)n3CCC)n2C)cc1 [Compound 51, (E)-7-Methyl-8-(4-propoxystyryl)-1,3-dipropylxanthine]",> 300
18,"CCn1c(=O)c2c(nc(/C(C)=C/c3ccccc3)n2C)n(CC)c1=O [Compound 134, (E)-1,3-Diethyl-7-methyl-8-(α-methylstyryl)xanthine]",> 300
19,"CCCn1c(=O)c2nc(/C=C/c3cccc(Cl)c3)[nH]c2n(CCC)c1=O [Compound 39, (E)-8-(3-Chlorostyryl)-1,3-dipropylxanthine]",> 100
20,"CCn1c(=O)c2[nH]c(C(F)=Cc3ccccc3)nc2n(CC)c1=O (stereo in doubt) [Compound 137, (E)-1,3-Diethyl-8-(α-fluorostyryl)xanthine]",> 100
21,"COc1ccc(/C=C/c2nc3c(=O)n(C)c(=O)n(C)c3[nH]2)c(OC)c1OC [Compound 91, (E)-8-(2,3,4-Trimethoxystyryl)theophylline]",> 300
22,"CCCn1c(=O)c2[nH]c(/C=C/c3ccc(OCC)cc3)nc2n(CCC)c1=O [Compound 48, (E)-8-(4-Ethoxystyryl)-1,3-dipropylxanthine]",> 100
